Reference: patent US20060069132A1, “Azolecarboxamide herbicides” (priority 2004, published 2006)

How the values were obtained:
Test in all cases: Test C pre-/postemergence herbicide test
[1] = tested on: morningglory; assay type: in vivo, Ipomoea coccinea; set-up: key to Plant response rating, Morningglory: 0 = no effect, 100 = complete control; details: for Morningglory plant response rating: Preemergence, scale 0 to 100, 0 no effect, 100 complete control
How it was run: (§1)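 Greenhouse-grown plants were evaluated visually 12 to 14 days after treatment, with 100 meaning complete control and 0 no effect. Application was preemergence, or postemergence at 2 to 18 cm.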

[2] = tested on: corn; assay type: in vivo, Zea mays; details: for Corn plant response rating: Preemergence, scale 0 to 100, 0 no effect, 100 complete control
How it was run: as §1

[3] = tested on: eastern black nightshade; assay type: in vivo, Solanum ptycanthum; details: for Nightshade plant response rating: Preemergence, scale 0 to 100, 0 no effect, 100 complete control
How it was run: as §1

[4] = tested on: cocklebur; assay type: in vivo, Xanthium strumarium
How it was run: as §1

[5] = tested on: velvetleaf; assay type: in vivo, Abutilon theophrasti; details: for Velvetleaf plant response rating: Preemergence, scale 0 to 100, 0 no effect, 100 complete control
How it was run: as §1

[6] = tested on: johnsongrass; assay type: in vivo, Sorghum halepense; details: for Johnsongrass plant response rating: Preemergence, scale 0 to 100, 0 no effect, 100 complete control
How it was run: as §1

[7] = tested on: Surinam grass; assay type: in vivo, Urochloa decumbens; details: for Surinam Grass plant response rating: Preemergence, scale 0 to 100, 0 no effect, 100 complete control
How it was run: as §1

[8] = tested on: pigweed; assay type: in vivo, Amaranthus retroflexus; details: for Pigweed plant response rating: Preemergence, scale 0 to 100, 0 no effect, 100 complete control
How it was run: as §1

[9] = 250 g ai/ha, scale 0 to 100 (0 no effect, 100 complete control), visual, 12 to 14 days, preemergence
[10] = 125 g ai/ha, scale 0 (no effect) to 100 (complete control), visual, 12 to 14 days, preemergence
[11] = Preemergence, 500 g ai/ha, scale 0 to 100, 0 no effect, 100 complete control
[12] = 62 g ai/ha, preemergence, scale 0 to 100
[13] = 250 g ai/ha, scale 0-100, preemergence
[14] = 500 g ai/ha, scale 0 to 100 (0 no effect, 100 complete control), visual, 12 to 14 days, preemergence

CCN(C)C(=O)c1cccc(NC(=O)c2cc(C(C)(C)C)nn2CC)c1 [Compound 48]
Plant response rating (0 = no effect, 100 = complete control), Morningglory ([1]; 62 g ai/ha, preemergence): 0
Plant response rating, Morningglory [1, 9]: 0
Morningglory plant response rating ([1]; 500 g ai/ha): 20
Plant response rating (0 = no effect, 100 = complete control), Corn ([2]; 62 g ai/ha, preemergence): 0
Plant response rating, Corn [2, 10]: 0
Plant response rating, Corn [2, 9]: 0
Corn plant response rating ([2]; 500 g ai/ha): 0
Plant response rating (0 = no effect, 100 = complete control), Nightshade ([3]; 62 g ai/ha, preemergence): 50
Plant response rating, Nightshade [3, 10]: 80
Plant response rating, Nightshade [3, 9]: 95
Nightshade plant response rating ([3]; 500 g ai/ha): 100
Plant response rating (0 = no effect, 100 = complete control), Cocklebur ([4]; 62 g ai/ha, preemergence): 0
Plant response rating, Cocklebur [4, 10]: 0
Plant response rating, Cocklebur [4, 9]: 0
Cocklebur plant response rating [4, 11]: 10
Plant response rating (0 = no effect, 100 = complete control), Velvetleaf ([5]; 62 g ai/ha, preemergence): 0
Plant response rating, Velvetleaf [5, 10]: 0
Plant response rating, Velvetleaf [5, 9]: 10
Velvetleaf plant response rating ([5]; 500 g ai/ha): 70
Plant response rating (0 = no effect, 100 = complete control), Johnsongrass ([6]; 62 g ai/ha, preemergence): 10
Plant response rating, Johnsongrass [6, 10]: 20
Plant response rating, Johnsongrass [6, 9]: 50
Johnsongrass plant response rating ([6]; 500 g ai/ha): 85
Plant response rating (0 = no effect, 100 = complete control), Surinam Grass ([7]; 62 g ai/ha, preemergence): 0
Plant response rating, Surinam Grass [7, 10]: 5
Plant response rating, Surinam Grass [7, 9]: 30
Surinam Grass plant response rating ([7]; 500 g ai/ha): 60
Plant response rating (0 = no effect, 100 = complete control), Pigweed ([8]; 62 g ai/ha, preemergence): 100
Plant response rating, Pigweed [8, 10]: 100
Plant response rating, Pigweed [8, 9]: 100
Pigweed plant response rating ([8]; 500 g ai/ha): 100

CCn1nc(C(C)(C)C)cc1C(=O)Nc1cccc(C(N)=O)n1 [Compound 162, 6-[[[3-(1,1-dimethylethyl)-1-ethyl-1H-pyrazol-5-yl]carbonyl]amino]-2-pyridinecarboxamide]
Plant response rating, Morningglory [1, 12]: 45
Plant response rating, Morningglory [1, 10]: 100
Morningglory plant response rating ([1]; 500 g ai/ha): 100
Plant response rating, Corn [2, 12]: 20
Plant response rating, Corn [2, 10]: 70
Plant response rating, Corn [2, 9]: 75
Corn plant response rating ([2]; 500 g ai/ha): 75
Plant response rating, Nightshade [3, 12]: 80
Plant response rating, Nightshade [3, 10]: 100
Nightshade plant response rating ([3]; 500 g ai/ha): 100
Plant response rating, Cocklebur [4, 9]: 65
Cocklebur plant response rating [4, 11]: 75
Plant response rating, Velvetleaf [5, 12]: 70
Plant response rating, Velvetleaf [5, 10]: 75
Velvetleaf plant response rating ([5]; 500 g ai/ha): 100
Plant response rating, Johnsongrass [6, 12]: 65
Plant response rating, Johnsongrass [6, 10]: 80
Johnsongrass plant response rating ([6]; 500 g ai/ha): 95
Plant response rating, Surinam Grass [7, 12]: 0
Plant response rating, Surinam Grass [7, 10]: 75
Surinam Grass plant response rating ([7]; 500 g ai/ha): 95
Plant response rating, Pigweed [8, 12]: 100
Plant response rating, Pigweed [8, 10]: 100
Pigweed plant response rating ([8]; 500 g ai/ha): 100

CCc1nn(C(C)(C)C)cc1C(=O)Nc1cccc(C(=O)N(CC)CC)c1 [Compound 182, N-[3-[(diethylamino)carbonyl]phenyl]-1-(1,1-dimethylethyl)-3-ethyl-1H-pyrazole-4-carboxamide]
pest or weed control at 62 g/ha ([1]; Ipomoea, pre-emergence, 62 g ai/ha, preemergence, scale 0 to 100, read-out: Plant response rating, Morningglory): 0%
pest or weed control at 125 g/ha ([1]; Ipomoea, pre-emergence, 125 g ai/ha, scale 0 (no effect) to 100 (complete control), visual, 12 to 14 days, read-out: Plant response rating, Morningglory): 15%
Morningglory plant response rating ([1]; 500 g ai/ha): 100
Corn plant response rating ([2]; 500 g ai/ha): 0
Corn plant response rating (crop injury, 0 = no effect, 100 = complete kill) at 62 g/ha ([2]; Zea mays, pre-emergence, 312 h, 62 g ai/ha, preemergence, scale 0 to 100): 0%
Corn plant response rating (crop injury, 0 = no effect, 100 = complete kill) at 125 g/ha ([2]; Zea mays, pre-emergence, 312 h, 125 g ai/ha, scale 0 (no effect) to 100 (complete control), visual, 12 to 14 days): 0%
Corn plant response rating (crop injury, 0 = no effect, 100 = complete kill) at 250 g/ha ([2]; Zea mays, pre-emergence, 312 h, 250 g ai/ha, scale 0 to 100 (0 no effect, 100 complete control), visual, 12 to 14 days): 0%
Nightshade plant response rating ([3]; 500 g ai/ha): 95
pest or weed control at 62 g/ha ([3]; pre-emergence, 62 g ai/ha, preemergence, scale 0 to 100, read-out: Plant response rating, Nightshade): 70%
pest or weed control at 125 g/ha ([3]; pre-emergence, 125 g ai/ha, scale 0 (no effect) to 100 (complete control), visual, 12 to 14 days, read-out: Plant response rating, Nightshade): 80%
pest or weed control at 62 g/ha ([4]; Xanthium strumarium, pre-emergence, 312 h, 62 g ai/ha, preemergence, scale 0 to 100, read-out: Plant response rating, Cocklebur): 0%
pest or weed control at 125 g/ha ([4]; Xanthium strumarium, pre-emergence, 312 h, 125 g ai/ha, scale 0 (no effect) to 100 (complete control), visual, 12 to 14 days, read-out: Plant response rating, Cocklebur): 0%
pest or weed control at 250 g/ha ([4]; Xanthium strumarium, pre-emergence, 312 h, 250 g ai/ha, scale 0 to 100 (0 no effect, 100 complete control), visual, 12 to 14 days, read-out: Plant response rating, Cocklebur): 0%
pest or weed control at 500 g/ha ([4]; Xanthium strumarium, pre-emergence, 312 h, Preemergence, 500 g ai/ha, scale 0 to 100, 0 no effect, 100 complete control, read-out: Cocklebur plant response rating): 0%
pest or weed control at 62 g/ha ([5]; Abutilon theophrasti, pre-emergence, 62 g ai/ha, preemergence, scale 0 to 100, read-out: Plant response rating, Velvetleaf): 0%
pest or weed control at 125 g/ha ([5]; Abutilon theophrasti, pre-emergence, 125 g ai/ha, scale 0 (no effect) to 100 (complete control), visual, 12 to 14 days, read-out: Plant response rating, Velvetleaf): 0%
Velvetleaf plant response rating ([5]; 500 g ai/ha): 100
Johnsongrass plant response rating ([6]; 500 g ai/ha): 75
pest or weed control at 62 g/ha ([6]; Sorghum halepense, pre-emergence, 62 g ai/ha, preemergence, scale 0 to 100, read-out: Plant response rating, Johnsongrass): 0%
pest or weed control at 125 g/ha ([6]; Sorghum halepense, pre-emergence, 125 g ai/ha, scale 0 (no effect) to 100 (complete control), visual, 12 to 14 days, read-out: Plant response rating, Johnsongrass): 35%
Surinam Grass plant response rating ([7]; 500 g ai/ha): 85
pest or weed control at 62 g/ha ([7]; Urochloa decumbens, pre-emergence, 312 h, 62 g ai/ha, preemergence, scale 0 to 100, read-out: Plant response rating, Surinam Grass): 0%
pest or weed control at 125 g/ha ([7]; Urochloa decumbens, pre-emergence, 312 h, 125 g ai/ha, scale 0 (no effect) to 100 (complete control), visual, 12 to 14 days, read-out: Plant response rating, Surinam Grass): 20%
pest or weed control at 62 g/ha ([8]; Amaranthus retroflexus, pre-emergence, 62 g ai/ha, preemergence, scale 0 to 100, read-out: Plant response rating, Pigweed): 95%
pest or weed control at 125 g/ha ([8]; Amaranthus retroflexus, pre-emergence, 125 g ai/ha, scale 0 (no effect) to 100 (complete control), visual, 12 to 14 days, read-out: Plant response rating, Pigweed): 95%
Pigweed plant response rating ([8]; 500 g ai/ha): 95

CCc1nn(C(C)(C)C)cc1C(=O)Nc1cc(C(=O)N(C)C)ccn1 [Compound 293]
Plant response rating, Morningglory [1, 13]: 100
Plant response rating, Corn [2, 10]: 10
Plant response rating, Corn [2, 13]: 80
Plant response rating, Corn [2, 14]: 95
Plant response rating, Nightshade [3, 12]: 65
Plant response rating, Nightshade [3, 10]: 100
Plant response rating, Nightshade [3, 13]: 100
Plant response rating, Nightshade [3, 14]: 100
Plant response rating, Cocklebur [4, 12]: 0
Plant response rating, Cocklebur [4, 13]: 20
Cocklebur plant response rating [4, 11]: 60
Plant response rating, Velvetleaf [5, 12]: 80
Plant response rating, Velvetleaf [5, 13]: 100
Plant response rating, Velvetleaf [5, 14]: 100
Plant response rating, Johnsongrass [6, 12]: 65
Plant response rating, Johnsongrass [6, 10]: 95
Plant response rating, Johnsongrass [6, 13]: 100
Plant response rating, Johnsongrass [6, 14]: 100
Plant response rating, Surinam Grass [7, 13]: 100
Plant response rating, Surinam Grass [7, 14]: 100
Plant response rating, Pigweed [8, 12]: 20
Plant response rating, Pigweed [8, 10]: 85
Plant response rating, Pigweed [8, 13]: 95
Plant response rating, Pigweed [8, 14]: 100

CCn1nc(C(C)(C)C)cc1C(=O)Nc1cc(C(=S)N(C)C)ccc1F [Compound 294]
Plant response rating, Morningglory [1, 12]: 30
Plant response rating, Morningglory [1, 10]: 30
Plant response rating, Morningglory [1, 13]: 50
Plant response rating, Morningglory [1, 14]: 50
Plant response rating, Corn [2, 12]: 55
Plant response rating, Corn [2, 10]: 60
Plant response rating, Corn [2, 13]: 60
Plant response rating, Corn [2, 14]: 80
Plant response rating, Nightshade [3, 12]: 100
Plant response rating, Nightshade [3, 10]: 100
Plant response rating, Nightshade [3, 13]: 100
Plant response rating, Nightshade [3, 14]: 100
Plant response rating, Cocklebur [4, 12]: 30
Plant response rating, Cocklebur [4, 10]: 40
Plant response rating, Cocklebur [4, 13]: 80
Cocklebur plant response rating [4, 11]: 85
Plant response rating, Velvetleaf [5, 12]: 100
Plant response rating, Velvetleaf [5, 13]: 100
Plant response rating, Velvetleaf [5, 14]: 100
Plant response rating, Johnsongrass [6, 12]: 80
Plant response rating, Johnsongrass [6, 10]: 100
Plant response rating, Johnsongrass [6, 13]: 100
Plant response rating, Johnsongrass [6, 14]: 100
Plant response rating, Surinam Grass [7, 12]: 85
Plant response rating, Surinam Grass [7, 13]: 100
Plant response rating, Surinam Grass [7, 14]: 100
Plant response rating, Pigweed [8, 12]: 100
Plant response rating, Pigweed [8, 10]: 100
Plant response rating, Pigweed [8, 13]: 100
Plant response rating, Pigweed [8, 14]: 100
